In a compilation of properties of binary mixtures (doi:10.1016/j.molliq.2017.09.070):

Experiment: xn = mol fraction of the nth substance listed
Details: 100 kPa; for viscosity: 298.1 K

CCCC[N+]1(C)CCCC1.O=S(=O)([N-]S(=O)(=O)C(F)(F)F)C(F)(F)F + CC1COC(=O)O1
Details | electrical conductivity [S/m]
296.9 K, x1 = 0.4 | 0.781
297.1 K, x1 = 0.6 | 0.543
297.1 K, x1 = 0.9 | 0.347
297.3 K, x1 = 0.2 | 1
299.8 K, x1 = 0.9 | 0.366
299.9 K, x1 = 0.2 | 1.02
299.9 K, x1 = 0.6 | 0.571
302.5 K, x1 = 0.2 | 1.04
302.5 K, x1 = 0.4 | 0.835
302.6 K, x1 = 0.6 | 0.593
302.6 K, x1 = 0.8 | 0.444
302.6 K, x1 = 0.9 | 0.387
305.3 K, x1 = 0.4 | 0.864
305.4 K, x1 = 0.2 | 1.07
305.4 K, x1 = 0.6 | 0.615
305.4 K, x1 = 0.8 | 0.471
305.4 K, x1 = 0.9 | 0.417
307.9 K, x1 = 0.4 | 0.882
307.9 K, x1 = 0.8 | 0.501
308.1 K, x1 = 0.9 | 0.437
308.2 K, x1 = 0.6 | 0.639
308.4 K, x1 = 0.2 | 1.11
310.9 K, x1 = 0.4 | 0.901
310.9 K, x1 = 0.9 | 0.461
311.1 K, x1 = 0.2 | 1.13
311.1 K, x1 = 0.6 | 0.666
313.5 K, x1 = 0.9 | 0.487
313.7 K, x1 = 0.6 | 0.683
316.3 K, x1 = 0.4 | 0.963
316.3 K, x1 = 0.8 | 0.578
316.5 K, x1 = 0.6 | 0.704
316.5 K, x1 = 0.9 | 0.508
319 K, x1 = 0.4 | 0.988
319.2 K, x1 = 0.2 | 1.19
319.2 K, x1 = 0.8 | 0.603
319.2 K, x1 = 0.9 | 0.529
321.9 K, x1 = 0.4 | 1.01
322.1 K, x1 = 0.2 | 1.2
322.1 K, x1 = 0.8 | 0.628
322.3 K, x1 = 0.6 | 0.746
324.6 K, x1 = 0.2 | 1.22
324.7 K, x1 = 0.8 | 0.652
324.9 K, x1 = 0.4 | 1.02
324.9 K, x1 = 0.6 | 0.771
324.9 K, x1 = 0.9 | 0.59
327.2 K, x1 = 0.9 | 0.615
327.4 K, x1 = 0.2 | 1.24
327.4 K, x1 = 0.4 | 1.05
327.4 K, x1 = 0.8 | 0.677
330.1 K, x1 = 0.4 | 1.07
330.3 K, x1 = 0.6 | 0.811
330.4 K, x1 = 0.8 | 0.701
332.9 K, x1 = 0.8 | 0.721
333 K, x1 = 0.2 | 1.27
333 K, x1 = 0.4 | 1.09
333 K, x1 = 0.9 | 0.661
333.2 K, x1 = 0.6 | 0.828
335.5 K, x1 = 0.9 | 0.683
335.7 K, x1 = 0.2 | 1.3
335.9 K, x1 = 0.6 | 0.842
335.9 K, x1 = 0.8 | 0.74
336 K, x1 = 0.4 | 1.12
338.5 K, x1 = 0.4 | 1.13
338.5 K, x1 = 0.9 | 0.706
338.7 K, x1 = 0.6 | 0.864
341.4 K, x1 = 0.4 | 1.16
341.4 K, x1 = 0.9 | 0.734
341.6 K, x1 = 0.2 | 1.32
343.8 K, x1 = 0.8 | 0.804
344 K, x1 = 0.2 | 1.33
344 K, x1 = 0.4 | 1.16
344.2 K, x1 = 0.9 | 0.752
344.4 K, x1 = 0.6 | 0.908
347 K, x1 = 0.2 | 1.34
347 K, x1 = 0.6 | 0.935
347 K, x1 = 0.8 | 0.835
347 K, x1 = 0.9 | 0.781
349.5 K, x1 = 0.8 | 0.849
349.9 K, x1 = 0.2 | 1.36
349.9 K, x1 = 0.9 | 0.808
350.1 K, x1 = 0.6 | 0.951

Details | viscosity [mPa·s]
x1 = 0.2 | 5.5
x1 = 0.4 | 13.7
x1 = 0.6 | 29.8
x1 = 0.8 | 41.3
x1 = 0.9 | 48.1

CC1COC(=O)O1 (stereo unspecified) + CCCC[n+]1ccn(C)c1.O=S(=O)([N-]S(=O)(=O)C(F)(F)F)C(F)(F)F
Details | viscosity [mPa·s]
x2 = 0.2 | 7.5
x2 = 0.4 | 11.9
x2 = 0.6 | 20
x2 = 0.8 | 31.4
x2 = 0.9 | 35.4
